Reference: US20250213533A1 (GH RESEARCH IRELAND LIMITED, priority 2022, published 2025)

Key:
[1] = Pharmacokinetics of 5-MeO-DMT and bufotenine after inhalation of 5-MeO-DMT in subjects; format: in vivo, human
[2] = test system: Escherichia coli (WP2 uvrA pKM101); experiment: Bacterial mutation test, tryptophan-requiring strain; format: cell-based; settings: up to 5000 μg/plate, absence and presence of rat liver S-9
Method: These conditions included treatments at concentrations up to 5000 μg/plate (the maximum recommended concentration according to current regulatory guidelines), in the absence and in the presence of a rat liver metabolic activation system (S-9).

For `COc1ccc2[nH]cc(CCN(C)C)c2c1` [5-MeO-DMT], the detectability in plasma ([1]; 3 hours after inhalation, 6, 12, 18 mg) was “no longer detectable”, the absorption and distribution ([1]; inhaled) was “rapid absorption and distribution” and the “pharmacokinetic measurements with uptitration dosing schemes compared with single doses” value ([1]; uptitration, inhaled) was “Substantially similar results”. For the same molecule, the induction of mutation [2] was “did not induce mutation”.
